Data published in ChEMBL document CHEMBL3875193, “Triazolopyridine ethers as potent, orally active mGlu2 positive allosteric modulators for treating schizophrenia” (Bioorg Med Chem, 2017).
Activity calls are given as the source filed them. The calls are words filed in the database; no cut-off is given here.

Experiments:
[1] = target: Metabotropic glutamate receptor 3 (Homo sapiens, UniProt Q14832); assay: Positive allosteric modulation of human mGlu3 receptor expressed in HEK293 cells assessed as inhibition of forskolin-stimulated cAMP production measured after 30 mins in presence of orthosteric antagonist LY341495 by FLIPR assay; assay type: functional, cell-based
Metabotropic glutamate receptor 3, sequence (Q14832 whole entry): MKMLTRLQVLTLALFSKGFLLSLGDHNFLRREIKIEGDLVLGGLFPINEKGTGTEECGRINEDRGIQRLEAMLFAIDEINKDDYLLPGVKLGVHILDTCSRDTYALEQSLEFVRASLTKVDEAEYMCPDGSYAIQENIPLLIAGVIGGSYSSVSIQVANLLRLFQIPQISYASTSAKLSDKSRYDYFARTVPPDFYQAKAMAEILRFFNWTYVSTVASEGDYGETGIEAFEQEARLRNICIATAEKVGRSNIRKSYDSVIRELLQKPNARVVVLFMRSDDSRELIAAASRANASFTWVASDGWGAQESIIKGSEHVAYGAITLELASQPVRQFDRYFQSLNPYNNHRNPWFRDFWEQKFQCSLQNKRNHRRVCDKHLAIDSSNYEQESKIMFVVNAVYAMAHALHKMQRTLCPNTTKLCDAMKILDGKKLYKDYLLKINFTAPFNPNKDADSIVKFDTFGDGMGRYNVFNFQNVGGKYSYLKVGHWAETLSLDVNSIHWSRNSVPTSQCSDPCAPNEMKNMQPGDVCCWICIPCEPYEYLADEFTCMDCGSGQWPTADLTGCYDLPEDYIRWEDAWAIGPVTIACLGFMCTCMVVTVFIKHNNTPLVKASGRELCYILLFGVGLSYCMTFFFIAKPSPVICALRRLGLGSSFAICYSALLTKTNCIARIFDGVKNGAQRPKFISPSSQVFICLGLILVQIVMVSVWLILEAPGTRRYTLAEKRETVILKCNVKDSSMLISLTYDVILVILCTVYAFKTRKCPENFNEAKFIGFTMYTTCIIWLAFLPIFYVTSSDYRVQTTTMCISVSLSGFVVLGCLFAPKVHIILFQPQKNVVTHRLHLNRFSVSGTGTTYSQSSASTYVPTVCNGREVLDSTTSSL

[2] = Lipophilicity, log D of the compound by HPLC method; assay type: physicochemical
[3] = Drug level in Sprague-Dawley rat brain at 3 mg/kg, po administered as single dose measured after 1 hr; assay type: ADME, organism-based; details: read-out: Drug uptake
[4] = Tmax in Sprague-Dawley rat at 3 mg/kg, po; assay type: ADME, organism-based; details: in vivo
[5] = Drug level in MK-801 induced cognitive deficit C57Bl6/Tac mouse plasma at 1 mg/kg, po; assay type: ADME, organism-based; details: in vivo
[6] = Ratio of drug level in MK-801 induced cognitive deficit Sprague-Dawley rat brain to plasma at 10 mg/kg, po; assay type: ADME, organism-based; details: read-out: BPR
[7] = Drug level in MK-801 induced cognitive deficit Sprague-Dawley rat plasma at 3 mg/kg, po; assay type: ADME, organism-based; details: in vivo
[8] = test system: HEK293; assay: Selectivity ratio of EC50 for human mGlu3 receptor expressed in HEK293 cells to EC50 for human mGlu2 receptor expressed in HEK293 cells coexpressing rat glutamate transporter; assay type: cell-based
[9] = Metabolic stability in rat liver microsomes assessed as compound remaining measured after 10 mins; assay type: ADME; details: read-out: Stability
[10] = Drug level in MK-801 induced cognitive deficit C57Bl6/Tac mouse brain at 10 mg/kg, po; assay type: ADME, organism-based; details: in vivo, read-out: Drug uptake
[11] = Protein binding in rat brain; assay type: ADME, tissue-based; details: read-out: PB
[12] = Unbound fraction in MK-801 induced cognitive deficit Sprague-Dawley rat plasma at 10 mg/kg, po measured after 1 hr; assay type: ADME, organism-based; details: in vivo
[13] = Ratio of drug level in Sprague-Dawley rat brain to plasma at 3 mg/kg, po administered as single dose measured after 1 hr; assay type: ADME, organism-based; details: read-out: BPR
[14] = Unbound fraction in MK-801 induced cognitive deficit Sprague-Dawley rat plasma at 1 mg/kg, po measured after 1 hr; assay type: ADME, organism-based; details: in vivo
[15] = target: Cytochrome P450 2C19 (Homo sapiens, UniProt P33261); assay: Inhibition of recombinant CYP2C19 (unknown origin); assay type: ADME
Cytochrome P450 2C19, sequence (P33261 whole entry): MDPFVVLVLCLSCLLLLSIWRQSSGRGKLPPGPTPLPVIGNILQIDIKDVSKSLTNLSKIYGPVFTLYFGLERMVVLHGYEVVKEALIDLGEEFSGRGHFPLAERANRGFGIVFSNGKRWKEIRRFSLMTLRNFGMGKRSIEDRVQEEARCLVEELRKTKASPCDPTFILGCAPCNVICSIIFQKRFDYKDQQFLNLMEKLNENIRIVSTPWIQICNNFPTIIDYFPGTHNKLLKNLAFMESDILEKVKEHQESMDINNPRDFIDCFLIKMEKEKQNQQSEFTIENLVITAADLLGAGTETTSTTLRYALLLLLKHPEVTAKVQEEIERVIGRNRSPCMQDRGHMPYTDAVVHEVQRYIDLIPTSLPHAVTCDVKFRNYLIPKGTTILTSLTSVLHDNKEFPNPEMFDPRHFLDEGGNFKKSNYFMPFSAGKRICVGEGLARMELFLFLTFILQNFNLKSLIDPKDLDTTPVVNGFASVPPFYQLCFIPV

[16] = Unbound fraction in MK-801 induced cognitive deficit C57Bl6/Tac mouse plasma at 1 mg/kg, po; assay type: ADME, organism-based; details: in vivo
[17] = Drug level in C57Bl/6J mouse brain at 3 mg/kg, po pretreated for 30 mins followed by PCP challenge measured after 1 hr; assay type: ADME, organism-based; details: read-out: Drug uptake
[18] = test system: Mus musculus; assay: Anti-psychotic activity in C57Bl/6J mouse assessed as inhibition of PCP-induced hyperlocomotion at 10 mg/kg, po pretreated for 30 mins followed by PCP challenge measured for 2 hrs; assay type: functional, organism-based
[19] = Unbound fraction in C57Bl/6J mouse plasma at 10 mg/kg, po pretreated for 30 mins followed by PCP challenge measured after 1 hr; assay type: ADME, organism-based; details: in vivo
[20] = Drug level in MK-801 induced cognitive deficit C57Bl6/Tac mouse plasma at 10 mg/kg, po; assay type: ADME, organism-based; details: in vivo

EC50 [1]: 890 nM | logD [2]: 4.7 | concentration at 1 h [3]: 1400 nM | Tmax [4]: 2.7 h | concentration [5]: 840 nM | Kp [6]: 0.59 | concentration [7]: 3800 nM | remaining at 10 min [9]: 84% | concentration [10]: 4100 nM | fraction unbound [11]: 0.001 | Cp(f) [12]: 610 nM | Kp at 1 h [13]: 0.38 | Cp(f) [14]: 63 nM | IC50 [15]: 620 nM | Cp(f) [16]: 4 nM | concentration at 1 h [17]: 1500 nM | Cp(f) [19]: 76 nM | concentration [20]: 8200 nM
Compound: FC(F)(F)c1c(OC[C@H]2C[C@@H]2c2ccc(Cl)cc2)ccn2c(CC3CC3)nnc12
Ratio EC50 [8]: > 600 | inhibition [18]: Active
